Read-outs that look alike come from different tables or passages of the source.
Experiments:
[1] = system: chorioallantoic membrane (CAM); assay type: in vivo
Experimental: (§1) To investigate the cytotoxicity of calcium peroxide, hyaluronic acid, and a combination thereof on cells, the substances were given to human primary fibroblasts, osteoblasts, and human umbilical vein endothelial cells (HUVEC) in vitro and compared to untreated cells and a dead control. For this purpose, cytotoxicity tests were performed according to ISO 10993-5 by measuring the cell viability quantitatively and […]. Additionally, biocompatibility tests were performed in the chorioallantoic membrane assay (CAM assay) in fertilized hen's eggs. All tests were repeated at least three times independently. In all tests 30 mg/mL hyaluronic acid and 0.256 mg/mL CaO2 were used. According to ISO 10993-5, cytotoxicity is defined by more than 30% reduction of the viable cell number by the substance.
Fertilized white Leghorn chicken eggs (LSL Rhein-Main GmbH, Dieburg, Germany) were incubated at 38° C. with constant humidity of 55 rH in an incubator (Type 3000 digital and fully automatic, Siepmann GmbH, Herdecke, Germany). For the first three days, eggs were placed horizontally on one side to ensure that the CAM would detach from the upwards pointing eggshell. On the embryonic development day (EDD) 3, eggs were prepared by removing 5-6 mL of the albumen in order to enlarge the space between eggshell and CAM. A small window of 3×2 cm was cut into the upwards pointing part of the eggshell. The window was covered with Parafilm® (Sigma-Aldrich, St. Louis, MO, USA) to prevent evaporation. On EDD-8, Gelaspon Strips (Bausch & Lomb Inc.; New York, USA) were cut in slices of 1×0.5×2 mm. 20 μl of each substance (512 mg/L CaO2, 10 mg/mL sodium hyaluronate, combination thereof) were added to the sponge. 20 μl of water was used as control. The further assessment of potential tissue adverse events was performed blinded. After 3 h, on EDD-10, and EDD-12, pictures were taken with a digital intravital fluorescence microscope (Olympus BXFM, Olympus Deutschland GmbH, Hamburg, Germany) at a 100-fold magnification using the cellSens Dimension software package.

[2] = system: human primary osteoblasts; assay type: cell-based; conditions: 30 mg/mL hyaluronic acid, 0.256 mg/mL CaO2; FIG. 2
Experimental: as §1
Primary human osteoblasts were isolated according to the following protocol. Human bone specimens were obtained during hip or knee joint replacement surgeries. […]
Cells were seeded into a 24-well-plate and they were given time to adhere overnight. […] Fluorescence was measured on a Fluorescence Microplate Reader (Fluoroskan Ascent Microplate reader, ThermoFisher Scientific, Waltham, MA, USA). […]

[3] = system: planktonic Porphyromonas gingivalis DSM 20709; experiment: Planktonic bacterial growth and metabolic activity of P. gingivalis; assay type: cell-based; conditions: for relative metabolic activity compared to the control: FIG. 5 lower right; for optical density at 600 nm (growth) compared to the control: FIG. 5 top right
Experimental: (§2) According to FIG. 5, different concentrations of calcium peroxide were applied to mature biofilms in combination with hyaluronic acid. Calcium peroxide was added to planktonic bacterial strains S. oralis and P. gingivalis in concentrations ranging from 0 mg/L (control) to 500 mg/L with hyaluronic acid being present in a concentration of 11.550 mg/L. Shown in each case are the optical density at 600 nm, a parameter for the growth of a bacterial culture, and the relative metabolic activity. […] The autoclaved calcium peroxide (CaO2) (Sigma Aldrich, St. Louis, MO, US), ZnO2 and/or MgO2 was dissolved in sterile filtered, deionized, and autoclaved water. By serial dilutions with water (for planktonic experiments) or BHI/VitK (for biofilm experiments) the solutions were adjusted to concentration of 3.9-500 mg/l CaO2 for bacterial experiments. All solutions were freshly prepared for each experiment. Streptococcus oralis ATCC 9811 was obtained from the American Type Culture Collection (ATCC) and Porphyromonas gingivalis DSM 20709 derived from the German Collection of Microorganisms and Cell Cultures (DSMZ). The strains were grown under anaerobic conditions (80% N2, 10% H2, 10% CO2) at 37° C. for 24 h in 50 mL screw cap tube (Sarstedt, Nümbrecht, Germany) with Brain Heart Infusion Medium (BHI; Oxoid, Wesel, Germany) containing 10 μg/mL vitamin K (Roth, Karlsruhe, Germany; BHI/VitK) to obtain 24-hour-old precultures for further processing. In order to determine the influence of CaO2 on planktonic S. oralis and P. gingivalis, the 24-hour-old precultures were pelleted by centrifugation at 4,000 g for 15 min at 4° C., the supernatant was discarded and the bacterial pellets were resuspended in fresh double concentrated BHI/VitK medium (2×BH/VitK). The optical density was measured at 600 nm (OD600; BioPhotometer, Eppendorf, Hamburg, Germany), adjusted to 0.2 and dilute 1:10 with 2×BHI/VitK to 0.02. The freshly prepared CaO2 solution was mixed equally with the bacterial cultures (OD600=0.02) to a final OD600=0.01 and following final concentrations for CaO2: As positive controls, bacterial cultures (OD600=0.02) were mixed 1:2 with sterile filtered, deionized and autoclaved water (growth controls). As negative controls, 2×BHI/VitK was mixed equally with sterile filtered, deionized and autoclaved water (medium control) and the CaO2 solution was mixed 1:2 with 2×BHI/VitK (CaO2 solution control). Finally, 150 μL of each suspension was transferred into each well of a 96-well plate and cultivated for 24 h at 37° C. rotating (180 rpm) under anaerobic conditions (Anaerobic Jar and AnaeroGen; Oxoid, Wesel, Germany). All experiments were carried out in three biological and two technical replicates. To evaluate the effect of CaO2 on the growth of planktonic S. oralis and P. gingivalis cultures, the 24-h-old bacterial cultures were mixed and the optical density (OD600) was measured with a plate reader (Tecan, Mennedorf, Switzerland). Metabolic activity was measured using the BacTiter-Glo™ Microbial Viability Assay (Promega, Mannheim, Germany). 50 μL BacTiter-Glo™ reagent and 50 μL of the well-mixed bacterial cultures were added to opaque 96-well plates. After 5 min of incubation at room temperature under light protection, the samples were mixed again and the amount of adenosine triphosphate (ATP) was determined by measuring the luminescence using the plate reader. All results were normalized to the medium or CaO2 solution controls.

[4] = system: planktonic Streptococcus oralis ATCC 9811; experiment: Planktonic bacterial growth and metabolic activity of S. oralis; assay type: cell-based; conditions: for optical density at 600 nm (growth) compared to the control: 24 h anaerobic, FIG. 5 upper left
Experimental: as §2, with “As negative controls, 2×BHI/VitK was mixed equally with sterile filtered, deionized and autoclaved water (medium control) and the CaO2 solution was mixed 1:2 with 2×BHI/VitK (CaO2 solution control). Finally, 150 μL of each suspension was transferred into each well of a 96-well plate and cultivated for 24 h at 37° C. rotating (180 rpm) under anaerobic conditions (Anaerobic Jar and AnaeroGen; Oxoid, Wesel, Germany). All experiments were carried out in three biological and two technical replicates.” left out, “50 μL BacTiter-Glo™ reagent and 50 μL of the well-mixed bacterial cultures were added to opaque 96-well plates.” left out, “All results were normalized to the medium or CaO2 solution controls.” left out

[5] = system: human primary fibroblasts obtained from human oral mucosa; assay type: cell-based; conditions: 0.256 mg/mL calcium peroxide as single substance; cytotoxicity = more than 30% reduction (ISO 10993-5); FIG. 1
Experimental: as §1
Fibroblasts were obtained from human oral mucosa. Tissue samples were cut into small pieces of approximately 2×2 mm with a sterile disposable scalpel. […]
Cells were seeded into a 24-well-plate and they were given time to adhere overnight. […] Fluorescence was measured on a Fluorescence Microplate Reader (Fluoroskan Ascent Microplate reader, ThermoFisher Scientific, Waltham, MA, USA). Results were given as relative fluorescence using a 538 nm excitation filter and a 600 nm emission filter, normalized to untreated control.

Compound	adverse tissue reactions on the CAM ([1]; in vivo)	cytotoxic effect on the CAM ([1]; in vivo)	viability after treatment in comparison to untreated osteoblasts (=100% cell viability) [2]	relative metabolic activity compared to the control ([3]; calcium peroxide 125 mg/L)	optical density at 600 nm (growth) compared to the control ([3]; calcium peroxide 125 mg/L)	relative metabolic activity compared to the control ([3]; calcium peroxide 250 mg/L)	optical density at 600 nm (growth) compared to the control ([3]; calcium peroxide 250 mg/L)	relative metabolic activity compared to the control ([3]; calcium peroxide 500 mg/L)	optical density at 600 nm (growth) compared to the control ([3]; calcium peroxide 500 mg/L)	growth inhibition of S. oralis ([4]; calcium peroxide 125 mg/L)	optical density at 600 nm (growth) compared to the control ([4]; calcium peroxide 250 mg/L)	optical density at 600 nm (growth) compared to the control ([4]; calcium peroxide 500 mg/L)	relative metabolic activity compared to the control ([4]; calcium peroxide up to 500 mg/L, FIG. 5 lower left)	reduction in cell viability [5]	adverse tissue reactions on the CAM ([1]; FIG. 4)	angiogenesis (area of the sponge covered by blood vessels) compared to untreated CAM tissue ([1]; FIG. 4A)	cytotoxic effect on the CAM ([1]; substance applied on sponge, FIGS. 4A and 4B)
hyaluronic acid	no adverse tissue reactions	none of the tested substances had a cytotoxic effect	–	–	–	–	–	–	–	–	–	–	–	–	–	–	–
[Ca+2].[O-][O-] [calcium peroxide]	–	–	hardly showed a reduction	significantly decreased	significantly decreased	significantly decreased	significantly decreased	significantly decreased	significantly decreased	only very slightly inhibited	decreased significantly	decreased significantly	unchanged	more than 30%	no adverse tissue reactions	not significantly different	none of the tested substances had a cytotoxic effect

Reference: US20250152623A1, “Compositions and kits for use in wound healing, tissue regeneration and/or bone regeneration” (priority 2022, published 2025)
